Measurements taken from PMC7180948, “New Insights into 4-Anilinoquinazolines as Inhibitors of Cardiac Troponin I–Interacting Kinase (TNNi3K)” (Molecules, 2020).

Experiments:
Experiment in all cases: biochemical
Set-up in all cases: KINOMEscan competition binding panel (Eurofins DiscoverX), single concentration, percent inhibition
Settings in all cases: read-out: 15 at 1 µM % inhibition
[1] = biological target: EGFR(T790M) (Homo sapiens, UniProt P00533, T790M)
How it was run: (§1)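 Binding was profiled in the KINOMEscan panel of over 400 human kinases, with each compound tested at a single concentration of 1 µM to map selectivity.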

[2] = biological target: T1, ASK1 (Homo sapiens, UniProt Q99683)
T1 construct: gene MAP3K5
How it was run: as §1

[3] = biological target: T2, ABL1(F317I)-nonphosphorylated (Homo sapiens, UniProt P00519, F317I)
T2 construct: nonphosphorylated
How it was run: as §1

[4] = biological target: MKNK2 (Homo sapiens, UniProt Q9HBH9)
How it was run: as §1

[5] = biological target: T3, MLCK (Homo sapiens, UniProt Q32MK0)
T3 construct: gene MYLK3
How it was run: as §1

[6] = biological target: VRK2 (Homo sapiens, UniProt Q86Y07)
How it was run: as §1

[7] = biological target: CDK4 (Homo sapiens, UniProt P11802)
How it was run: as §1

[8] = biological target: TNNI3K (Homo sapiens, UniProt Q59H18)
How it was run: as §1

[9] = biological target: ERBB2 (Homo sapiens, UniProt P04626)
How it was run: as §1

[10] = biological target: MET(Y1235D) (Homo sapiens, UniProt P08581, Y1235D)
How it was run: as §1

[11] = biological target: MARK2 (Homo sapiens, UniProt Q7KZI7)
How it was run: as §1

[12] = biological target: FLT4 (Homo sapiens, UniProt P35916)
How it was run: as §1

[13] = biological target: T4, PCTK2 (Homo sapiens, UniProt Q00537)
T4 construct: gene CDK17
How it was run: as §1

[14] = biological target: TGFBR2 (Homo sapiens, UniProt P37173)
How it was run: as §1

[15] = biological target: MAP4K5 (Homo sapiens, UniProt Q9Y4K4)
How it was run: as §1

[16] = biological target: T5, ADCK4 (Homo sapiens, UniProt Q96D53)
T5 construct: gene COQ8B
How it was run: as §1

[17] = biological target: PDPK1 (Homo sapiens, UniProt O15530)
How it was run: as §1

[18] = biological target: CAMKK2 (Homo sapiens, UniProt Q96RR4)
How it was run: as §1

[19] = biological target: T6, p38-delta (Homo sapiens, UniProt O15264)
T6 construct: gene MAPK13
How it was run: as §1

[20] = biological target: EPHA7 (Homo sapiens, UniProt Q15375)
How it was run: as §1

[21] = biological target: T7, ABL1(M351T)-phosphorylated (Homo sapiens, UniProt P00519, M351T)
T7 construct: phosphorylated
How it was run: as §1

[22] = biological target: FGFR4 (Homo sapiens, UniProt P22455)
How it was run: as §1

[23] = biological target: T8, CAMK1B (Homo sapiens, UniProt Q6P2M8)
T8 construct: gene PNCK
How it was run: as §1

[24] = biological target: WEE1 (Homo sapiens, UniProt P30291)
How it was run: as §1

Chain of MARK2 (Q7KZI7 whole entry): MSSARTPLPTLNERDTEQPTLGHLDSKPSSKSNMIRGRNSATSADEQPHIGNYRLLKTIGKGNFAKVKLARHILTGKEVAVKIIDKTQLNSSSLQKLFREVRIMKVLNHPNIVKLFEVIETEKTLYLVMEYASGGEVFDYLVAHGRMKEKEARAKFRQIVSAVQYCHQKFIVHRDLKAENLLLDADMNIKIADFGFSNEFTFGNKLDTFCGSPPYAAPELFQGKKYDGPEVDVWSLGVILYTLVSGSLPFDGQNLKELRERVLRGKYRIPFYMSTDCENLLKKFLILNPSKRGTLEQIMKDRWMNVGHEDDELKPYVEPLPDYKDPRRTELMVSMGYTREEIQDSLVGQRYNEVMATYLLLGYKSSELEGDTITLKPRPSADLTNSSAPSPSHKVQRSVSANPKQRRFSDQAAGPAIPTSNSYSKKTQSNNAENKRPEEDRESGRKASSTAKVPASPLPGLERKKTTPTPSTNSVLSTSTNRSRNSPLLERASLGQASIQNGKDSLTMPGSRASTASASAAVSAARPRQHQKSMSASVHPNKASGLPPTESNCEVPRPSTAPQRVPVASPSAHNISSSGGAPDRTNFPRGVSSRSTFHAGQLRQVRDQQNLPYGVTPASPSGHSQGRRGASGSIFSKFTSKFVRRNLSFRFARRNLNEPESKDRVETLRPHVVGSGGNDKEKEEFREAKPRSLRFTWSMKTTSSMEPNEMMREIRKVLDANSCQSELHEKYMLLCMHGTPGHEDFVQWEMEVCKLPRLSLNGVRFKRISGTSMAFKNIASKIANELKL
T6 sequence (O15264 whole entry): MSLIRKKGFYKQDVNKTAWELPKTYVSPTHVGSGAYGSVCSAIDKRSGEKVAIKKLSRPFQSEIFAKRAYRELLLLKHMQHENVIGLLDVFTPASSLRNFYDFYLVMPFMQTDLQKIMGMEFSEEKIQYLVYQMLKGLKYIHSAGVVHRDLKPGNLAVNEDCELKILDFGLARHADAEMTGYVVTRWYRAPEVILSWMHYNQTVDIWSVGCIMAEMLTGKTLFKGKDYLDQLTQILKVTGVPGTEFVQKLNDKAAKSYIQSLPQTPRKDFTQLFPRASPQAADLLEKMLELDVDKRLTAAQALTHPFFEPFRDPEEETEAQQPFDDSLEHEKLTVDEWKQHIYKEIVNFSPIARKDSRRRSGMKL
Chain of FGFR4 (P22455 whole entry): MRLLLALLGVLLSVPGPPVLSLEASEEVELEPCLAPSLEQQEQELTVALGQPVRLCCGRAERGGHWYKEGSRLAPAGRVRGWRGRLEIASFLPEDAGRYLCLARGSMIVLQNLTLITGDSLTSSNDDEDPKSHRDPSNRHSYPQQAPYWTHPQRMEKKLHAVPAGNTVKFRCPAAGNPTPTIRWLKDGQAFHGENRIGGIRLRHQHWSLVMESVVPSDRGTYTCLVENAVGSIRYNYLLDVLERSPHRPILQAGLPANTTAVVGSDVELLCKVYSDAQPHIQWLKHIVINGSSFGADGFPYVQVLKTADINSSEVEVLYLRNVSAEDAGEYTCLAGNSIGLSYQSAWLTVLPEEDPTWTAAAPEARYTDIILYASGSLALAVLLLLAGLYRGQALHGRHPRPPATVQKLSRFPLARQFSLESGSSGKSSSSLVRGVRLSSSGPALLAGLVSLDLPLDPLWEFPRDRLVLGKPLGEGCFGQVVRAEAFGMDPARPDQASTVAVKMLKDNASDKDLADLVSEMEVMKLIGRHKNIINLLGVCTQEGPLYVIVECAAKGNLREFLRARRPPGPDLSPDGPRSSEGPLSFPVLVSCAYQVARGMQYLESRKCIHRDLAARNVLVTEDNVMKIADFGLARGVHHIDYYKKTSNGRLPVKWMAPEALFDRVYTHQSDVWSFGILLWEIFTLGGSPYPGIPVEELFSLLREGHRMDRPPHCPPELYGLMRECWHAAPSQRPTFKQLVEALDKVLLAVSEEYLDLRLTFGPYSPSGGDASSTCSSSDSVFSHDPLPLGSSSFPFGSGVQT
Chain of TGFBR2 (P37173 whole entry): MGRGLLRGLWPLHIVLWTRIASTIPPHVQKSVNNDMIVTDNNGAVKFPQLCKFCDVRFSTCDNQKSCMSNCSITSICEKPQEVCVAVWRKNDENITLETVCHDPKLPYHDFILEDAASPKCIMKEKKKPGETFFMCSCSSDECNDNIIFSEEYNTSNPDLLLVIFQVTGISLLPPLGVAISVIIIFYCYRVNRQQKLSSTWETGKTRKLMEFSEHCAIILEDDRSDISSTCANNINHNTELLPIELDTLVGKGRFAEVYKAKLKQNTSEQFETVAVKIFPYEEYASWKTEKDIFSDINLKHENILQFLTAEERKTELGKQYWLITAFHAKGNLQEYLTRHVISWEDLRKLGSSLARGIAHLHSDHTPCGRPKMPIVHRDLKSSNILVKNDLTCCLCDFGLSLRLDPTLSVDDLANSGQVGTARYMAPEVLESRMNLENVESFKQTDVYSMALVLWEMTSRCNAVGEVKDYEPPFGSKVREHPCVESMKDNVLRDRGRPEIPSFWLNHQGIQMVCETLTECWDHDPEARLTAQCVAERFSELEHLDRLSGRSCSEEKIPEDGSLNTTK
Chain of MKNK2 (Q9HBH9 whole entry): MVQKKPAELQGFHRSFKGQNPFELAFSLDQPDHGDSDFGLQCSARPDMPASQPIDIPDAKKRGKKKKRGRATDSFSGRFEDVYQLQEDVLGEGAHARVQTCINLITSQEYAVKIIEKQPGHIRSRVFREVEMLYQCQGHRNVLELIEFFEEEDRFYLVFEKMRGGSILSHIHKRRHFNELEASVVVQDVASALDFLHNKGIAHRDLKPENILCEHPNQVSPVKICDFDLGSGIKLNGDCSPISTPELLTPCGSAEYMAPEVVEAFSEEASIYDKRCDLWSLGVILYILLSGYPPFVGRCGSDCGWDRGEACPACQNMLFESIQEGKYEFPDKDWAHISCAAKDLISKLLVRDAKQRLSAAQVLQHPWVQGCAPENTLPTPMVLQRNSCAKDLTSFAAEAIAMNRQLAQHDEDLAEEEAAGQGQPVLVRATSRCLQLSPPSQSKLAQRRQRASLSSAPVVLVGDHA
Chain of TNNI3K (Q59H18 whole entry): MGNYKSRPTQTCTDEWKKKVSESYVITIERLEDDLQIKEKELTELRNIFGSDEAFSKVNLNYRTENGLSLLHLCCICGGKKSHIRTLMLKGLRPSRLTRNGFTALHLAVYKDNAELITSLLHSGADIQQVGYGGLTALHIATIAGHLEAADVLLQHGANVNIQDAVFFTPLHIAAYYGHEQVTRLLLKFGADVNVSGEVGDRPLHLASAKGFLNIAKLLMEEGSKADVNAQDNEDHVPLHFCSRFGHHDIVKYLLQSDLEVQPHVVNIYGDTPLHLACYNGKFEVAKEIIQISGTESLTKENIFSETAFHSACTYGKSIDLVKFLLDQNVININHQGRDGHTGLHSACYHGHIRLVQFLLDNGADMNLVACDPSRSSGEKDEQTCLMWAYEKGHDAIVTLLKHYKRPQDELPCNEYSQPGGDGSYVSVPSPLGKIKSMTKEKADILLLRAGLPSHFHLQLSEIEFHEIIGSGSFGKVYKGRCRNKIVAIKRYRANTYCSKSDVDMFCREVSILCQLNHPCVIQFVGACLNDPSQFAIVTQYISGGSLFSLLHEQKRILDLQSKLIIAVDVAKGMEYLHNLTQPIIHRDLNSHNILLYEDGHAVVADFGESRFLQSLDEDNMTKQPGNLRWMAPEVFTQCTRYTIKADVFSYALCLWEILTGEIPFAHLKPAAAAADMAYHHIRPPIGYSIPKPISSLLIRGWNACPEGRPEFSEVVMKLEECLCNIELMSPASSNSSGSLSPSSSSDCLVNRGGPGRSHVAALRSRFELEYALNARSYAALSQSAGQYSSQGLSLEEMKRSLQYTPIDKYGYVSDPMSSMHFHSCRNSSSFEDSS
Chain of EPHA7 (Q15375 whole entry): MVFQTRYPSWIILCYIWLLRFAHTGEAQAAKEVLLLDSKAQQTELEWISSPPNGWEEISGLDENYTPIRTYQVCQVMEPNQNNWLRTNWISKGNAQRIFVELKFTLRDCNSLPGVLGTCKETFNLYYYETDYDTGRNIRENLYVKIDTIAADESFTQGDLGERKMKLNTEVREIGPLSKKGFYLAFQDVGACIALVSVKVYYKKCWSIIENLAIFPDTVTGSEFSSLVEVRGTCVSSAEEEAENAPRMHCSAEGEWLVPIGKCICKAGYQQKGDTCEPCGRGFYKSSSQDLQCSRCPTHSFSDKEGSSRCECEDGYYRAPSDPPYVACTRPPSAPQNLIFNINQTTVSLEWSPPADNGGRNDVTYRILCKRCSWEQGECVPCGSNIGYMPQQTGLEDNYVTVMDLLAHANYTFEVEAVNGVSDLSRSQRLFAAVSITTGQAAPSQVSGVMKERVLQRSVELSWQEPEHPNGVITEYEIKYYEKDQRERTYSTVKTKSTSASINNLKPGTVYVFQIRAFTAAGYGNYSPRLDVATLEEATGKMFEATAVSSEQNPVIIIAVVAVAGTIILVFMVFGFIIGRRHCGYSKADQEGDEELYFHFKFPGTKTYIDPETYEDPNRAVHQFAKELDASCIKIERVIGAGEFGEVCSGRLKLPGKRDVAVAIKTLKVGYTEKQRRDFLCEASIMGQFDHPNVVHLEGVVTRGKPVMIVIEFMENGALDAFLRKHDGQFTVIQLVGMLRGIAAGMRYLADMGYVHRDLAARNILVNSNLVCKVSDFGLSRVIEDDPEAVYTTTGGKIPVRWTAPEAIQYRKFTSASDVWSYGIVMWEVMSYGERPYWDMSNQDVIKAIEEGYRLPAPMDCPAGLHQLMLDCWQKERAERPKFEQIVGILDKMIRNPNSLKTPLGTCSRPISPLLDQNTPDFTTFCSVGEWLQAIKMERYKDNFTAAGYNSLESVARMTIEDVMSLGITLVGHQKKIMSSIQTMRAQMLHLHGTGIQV

**Q.** `CNS(=O)(=O)c1ccc(N(C)C)c(Nc2nc(C)nc3cc(OC)c(OC)cc23)c1` [compound 15, 3-((6,7-dimethoxy-2-methylquinazolin-4-yl)amino)-4-(dimethylamino)-N-methylbenzenesulfonamide] was tested. Which inhibition at 1 µM [1] did it give?
**A.** 25%

**Q.** What about the inhibition at 1 µM [2] of the same compound?
**A.** 0%

**Q.** And the inhibition at 1 µM [3]?
**A.** 17%

**Q.** And the inhibition at 1 µM [4]?
**A.** 38%

**Q.** What about the inhibition at 1 µM [5] of the same compound?
**A.** 4%

**Q.** And the inhibition at 1 µM [6]?
**A.** 12%

**Q.** And the inhibition at 1 µM [7]?
**A.** 21%

**Q.** What about the inhibition at 1 µM [8] of the same compound?
**A.** 7%

**Q.** What about the inhibition at 1 µM [9] of the same compound?
**A.** 1%

**Q.** What about the inhibition at 1 µM [10] of the same compound?
**A.** 0%

**Q.** And the inhibition at 1 µM [11]?
**A.** 0%

**Q.** What about the inhibition at 1 µM [12] of the same compound?
**A.** 0%

**Q.** And the inhibition at 1 µM [13]?
**A.** 0%

**Q.** And the inhibition at 1 µM [14]?
**A.** 8%

**Q.** What about the inhibition at 1 µM [15] of the same compound?
**A.** 3%

**Q.** And the inhibition at 1 µM [16]?
**A.** 0%

**Q.** What about the inhibition at 1 µM [17] of the same compound?
**A.** 0%

**Q.** What about the inhibition at 1 µM [18] of the same compound?
**A.** 3%

**Q.** And the inhibition at 1 µM [19]?
**A.** 17%

**Q.** And the inhibition at 1 µM [20]?
**A.** 27%

**Q.** And the inhibition at 1 µM [21]?
**A.** 0%

**Q.** And the inhibition at 1 µM [22]?
**A.** 4%

**Q.** What about the inhibition at 1 µM [23] of the same compound?
**A.** 28%

**Q.** And the inhibition at 1 µM [24]?
**A.** 7%
